One experiment addresses PDK1 (Homo sapiens, UniProt O15530). Nature of the experiment: SelectScreen kinase selectivity profiling, PDK1. Format: biochemical. How it is done: (§1) Off-target kinase activity was performed using the SelectScreen kinase profiling service against either mini 50 kinase or full 450 kinase panels using the Z’lyte and Adapta kinase activity platforms (performed by Thermofisher).

For experiment [1], the system named is MCF-7 cells. Nature of the experiment: Cell cycle flow cytometry. Format: cell-based. How it is done:
MCF-7 breast cancer cells were treated with increasing concentrations of ALM301 (0.1–100 µM) for 72 h. Post treatment, media containing detached cells was collected for each sample and the remaining adherent cells detached using 0.1% EDTA in PBS. Resulting cell suspensions were incorporated with associated media, centrifuged to form a pellet, washed with 1% FCS in PBS and fixed using ice-cold ethanol. Samples were stored at 4 °C for 24 h before staining with propidium iodide (10 µg/mL) (Sigma) containing 2.5 mg/mL RNase A (Qiagen) for 30 min at 37 °C and stored overnight at 4 °C before analysis. A minimum of 10,000 cells per sample were analysed for DNA content using a FACSCalibur flow cytometer and CellQuest Pro software (Becton Dickinson).

The next experiment deals with ∆AKT3. Nature of the experiment: PH domain null AKT3 biochemical kinase assay (FP iMAP). How it is done: (§2) Biochemical analysis was performed using kinases obtained from Millipore (AKT1, ∆AKT1, ∆AKT2, ∆AKT3) and Signal Chem (AKT2 and AKT3). The specific activity of AKT 1,2 and 3 was determined to be 114 nmol/min/mg, 44 nmol/min/mg and 200 nmol/min/mg respectively as per activity assay protocol. ALM301 was profiled using the Fluorescent Polarisation (FP) iMAP Screening Express kit (Molecular Devices) using the FAM-Crosstide substrate [5FAM-[…]-OH] (Molecular Devices) against the three isoforms of AKT and their PH domain null mutants. Compounds were dissolved in DMSO prior to screening at 14 point titration series in the range (50 µM–50 pM). Fluorescence polarisation was measured using a Biotek Synergy 4 Hybrid microplate reader. Percentage inhibition of kinase activity was calculated and IC50 values derived using non-linear regression on GraphPad Prism. Competition of ALM301 with ATP was determined using AKT1 under increasing ATP concentrations up to 1000 µM.

Another experiment addresses T1, AKT2 (Homo sapiens, UniProt P31751).
T1 construct: purchased Signal Chem
In words: AKT2 biochemical kinase assay (FP iMAP). How it is done:
(§3) Biochemical analysis was performed using kinases obtained from Millipore (AKT1, ∆AKT1, ∆AKT2, ∆AKT3) and Signal Chem (AKT2 and AKT3). […] (Molecular Devices) against the three isoforms of AKT and their PH domain null mutants. Compounds were dissolved in DMSO prior to screening at 14 point titration series in the range (50 µM–50 pM). Fluorescence polarisation was measured using a Biotek Synergy 4 Hybrid microplate reader. Percentage inhibition of kinase activity was calculated and IC50 values derived using non-linear regression on GraphPad Prism. Competition of ALM301 with ATP was determined using AKT1 under increasing ATP concentrations up to 1000 µM.

The next experiment concerns the target CYP 2C19 (Homo sapiens, UniProt P33261). In words: CYP2C19 inhibition. In kind it is in vitro ADME.
The target in a further experiment is CYP 1A2 (Homo sapiens, UniProt P05177). Nature of the experiment: CYP1A2 inhibition. In kind it is in vitro ADME.
Chain of CYP 1A2 (P05177 whole entry): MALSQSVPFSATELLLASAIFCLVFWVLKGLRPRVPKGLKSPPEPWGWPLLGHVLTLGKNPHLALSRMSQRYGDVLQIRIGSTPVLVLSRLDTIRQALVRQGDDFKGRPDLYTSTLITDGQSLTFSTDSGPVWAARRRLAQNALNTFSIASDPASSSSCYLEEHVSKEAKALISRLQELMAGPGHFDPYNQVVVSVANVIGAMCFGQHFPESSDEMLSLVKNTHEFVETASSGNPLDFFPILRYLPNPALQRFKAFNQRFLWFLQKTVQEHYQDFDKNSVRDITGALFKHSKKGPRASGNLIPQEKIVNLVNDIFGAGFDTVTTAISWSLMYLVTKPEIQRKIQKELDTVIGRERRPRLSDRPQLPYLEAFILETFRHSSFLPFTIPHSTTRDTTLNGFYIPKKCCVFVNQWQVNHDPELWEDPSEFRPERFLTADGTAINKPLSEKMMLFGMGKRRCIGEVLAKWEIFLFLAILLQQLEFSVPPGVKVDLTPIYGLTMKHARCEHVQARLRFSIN
For experiment [2], the system named is pAKT (Ser473) in MCF-7 cells. Nature of the experiment: phospho-AKT (S473) ELISA in MCF-7 cells. Format: cell-based. The note with it: Homo sapiens, MCF7, 24h treatment, read-out: EC50 inhibition of phosphorylation of AKT. How it is done: Cells were then washed with PBS and lysed. The subsequent supernatant was assayed using a GSK3β (pS9) (Invitrogen, Life Technologies) ELISA. Phospho-AKT levels were detected using the phospho-AKT (S473) immunoassay (R&D Systems) as per manufacturer’s protocol. Percentage inhibition of phosphorylation status was calculated by comparing phospho-AKT levels to total AKT levels with each treatment and IC50 values derived using non-linear regression on GraphPad Prism.

The subject of the next experiment is ∆AKT2. Nature of the experiment: PH domain null AKT2 biochemical kinase assay (FP iMAP). How it is done:
as §2

The next experiment addresses T2, AKT3 (Homo sapiens, UniProt Q9Y243).
T2 construct: purchased Signal Chem
Nature of the experiment: AKT3 biochemical kinase assay (FP iMAP). How it is done: as §3

The subject of another experiment is normal cell lines. In words: In vitro proliferation assay (CellTiter-Glo), normal cell lines. Format: cell-based. Particulars: normal cell lines, 72 h; read-out: anti-proliferative IC50, normal cells. The procedure:
(§4) MCF-7, T47D, NCI-H460, HCT116, LNCaP, A431, PC3, PANC-1, A549, HT29M, SKOV-3, Du145, HMEC-1, Hs888Lu, Hela, MDA-MB-231 and SW480 cells were obtained from American Type Culture Collection (ATCC). A2780, PNT2, U251MG, HFFF2 and Fr2 cells were obtained from Public Health England European Collection of Authenticated Cell Cultures (Phe ECACC). InMyoFib and NHLF cells were acquired from Lonza. Cells were then incubated with increasing concentration of inhibitor (1 nM to 100 µM) for 72 h at 37 °C. Cell viability was determined using the CellTiter-Glo Luminescent Cell Viability Assay (Promega). IC50 values were derived as previously stated.

For a further experiment, the target named is T3, AKT1 (Homo sapiens, UniProt P31749).
T3 construct: purchased Millipore
T3 sequence (P31749 whole entry): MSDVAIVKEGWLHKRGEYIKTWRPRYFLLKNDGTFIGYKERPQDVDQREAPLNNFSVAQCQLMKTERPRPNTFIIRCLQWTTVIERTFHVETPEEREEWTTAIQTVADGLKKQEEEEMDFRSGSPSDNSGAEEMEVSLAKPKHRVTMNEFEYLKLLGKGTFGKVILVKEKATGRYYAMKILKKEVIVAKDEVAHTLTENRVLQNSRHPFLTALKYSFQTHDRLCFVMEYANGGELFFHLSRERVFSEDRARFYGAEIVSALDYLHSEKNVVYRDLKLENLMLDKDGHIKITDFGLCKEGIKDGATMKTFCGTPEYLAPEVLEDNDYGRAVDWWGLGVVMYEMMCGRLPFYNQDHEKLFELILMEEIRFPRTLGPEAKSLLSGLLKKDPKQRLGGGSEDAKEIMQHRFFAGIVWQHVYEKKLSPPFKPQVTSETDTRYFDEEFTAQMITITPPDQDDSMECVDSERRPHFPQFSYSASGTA
In words: SelectScreen kinase selectivity profiling, AKT1. Particulars: read-out: % inhibition @ 10 µM, AKT1; 10 µM fixed concentration. In kind it is biochemical. How it is done:
as §1

Another experiment has as its system A549 cells. Nature of the experiment: In vitro proliferation assay (CellTiter-Glo), A549. Particulars: Homo sapiens; A549 cell line. In kind it is cell-based. How it is done: as §4
The target in another experiment is CYP 2C9 (Homo sapiens, UniProt P11712). In words: CYP2C9 inhibition. In kind it is in vitro ADME.
Chain of CYP 2C9 (P11712 whole entry): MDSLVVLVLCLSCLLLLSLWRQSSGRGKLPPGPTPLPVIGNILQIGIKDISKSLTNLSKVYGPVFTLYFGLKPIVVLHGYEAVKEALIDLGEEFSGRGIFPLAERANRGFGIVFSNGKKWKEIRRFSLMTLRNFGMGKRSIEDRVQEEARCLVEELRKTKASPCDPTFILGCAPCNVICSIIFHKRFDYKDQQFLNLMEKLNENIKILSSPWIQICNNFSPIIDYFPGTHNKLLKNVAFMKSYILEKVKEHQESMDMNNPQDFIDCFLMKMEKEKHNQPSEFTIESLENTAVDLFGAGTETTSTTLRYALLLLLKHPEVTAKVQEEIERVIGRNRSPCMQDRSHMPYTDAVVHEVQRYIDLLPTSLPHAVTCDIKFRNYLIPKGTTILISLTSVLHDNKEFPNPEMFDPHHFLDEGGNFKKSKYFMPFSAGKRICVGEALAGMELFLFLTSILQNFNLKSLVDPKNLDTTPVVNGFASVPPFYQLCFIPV
Experiment [3] deals with MCF-7 cells. Nature of the experiment: Clonogenic cell survival assay. Format: cell-based. The note with it: Homo sapiens, MCF7; MCF-7, concentration range 0.001–10 µM.
The test system of the next experiment is pAKT in MCF-7 cells. In words: Western blot of pAKT and pGSK3β in MCF-7 cells. In kind it is cell-based. Particulars: 1 µM, observed from 1 h after treatment. How it is done: AKT inhibitor treated cell lysates were obtained using RIPA lysis buffer supplemented with protease and phosphatase inhibitor tablets (Roche). Protein samples (30 µg/lane) were run by SDS-PAGE and transferred to Hybond C extra nitrocellulose membranes (Amersham Biosciences) before incubation with the following primary antibodies; pAKT, total AKT, pGSK3β, total GSK3 β, p(Cell Signaling Technologies), Actin (Sigma) or Vinculin (Santa Cruz). Primary antibodies were diluted at 1:1000 (except Actin which was diluted 1:5000). Secondary antibodies were diluted 1:10,000. Blots were visualised using Amersham ECL plus western blot detection system (GE Healthcare) or Odyssey CLx system (LI-COR).

Like-named read-outs stand apart in the source and are kept apart here.

T2 sequence (Q9Y243 whole entry): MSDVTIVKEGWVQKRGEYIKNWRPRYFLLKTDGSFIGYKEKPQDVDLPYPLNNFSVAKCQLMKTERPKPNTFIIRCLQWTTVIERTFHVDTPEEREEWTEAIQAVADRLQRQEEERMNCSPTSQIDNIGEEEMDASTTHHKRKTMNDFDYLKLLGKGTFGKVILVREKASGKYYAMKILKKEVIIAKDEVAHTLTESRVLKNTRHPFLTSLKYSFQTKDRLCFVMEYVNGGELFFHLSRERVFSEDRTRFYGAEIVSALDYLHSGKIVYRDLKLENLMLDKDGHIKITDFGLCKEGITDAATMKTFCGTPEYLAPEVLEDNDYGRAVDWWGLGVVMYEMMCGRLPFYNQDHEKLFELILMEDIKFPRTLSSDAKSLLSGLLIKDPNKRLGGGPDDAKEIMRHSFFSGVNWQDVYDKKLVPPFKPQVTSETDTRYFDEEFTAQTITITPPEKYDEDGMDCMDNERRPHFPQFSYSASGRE
Chain of PDK1 (O15530 whole entry): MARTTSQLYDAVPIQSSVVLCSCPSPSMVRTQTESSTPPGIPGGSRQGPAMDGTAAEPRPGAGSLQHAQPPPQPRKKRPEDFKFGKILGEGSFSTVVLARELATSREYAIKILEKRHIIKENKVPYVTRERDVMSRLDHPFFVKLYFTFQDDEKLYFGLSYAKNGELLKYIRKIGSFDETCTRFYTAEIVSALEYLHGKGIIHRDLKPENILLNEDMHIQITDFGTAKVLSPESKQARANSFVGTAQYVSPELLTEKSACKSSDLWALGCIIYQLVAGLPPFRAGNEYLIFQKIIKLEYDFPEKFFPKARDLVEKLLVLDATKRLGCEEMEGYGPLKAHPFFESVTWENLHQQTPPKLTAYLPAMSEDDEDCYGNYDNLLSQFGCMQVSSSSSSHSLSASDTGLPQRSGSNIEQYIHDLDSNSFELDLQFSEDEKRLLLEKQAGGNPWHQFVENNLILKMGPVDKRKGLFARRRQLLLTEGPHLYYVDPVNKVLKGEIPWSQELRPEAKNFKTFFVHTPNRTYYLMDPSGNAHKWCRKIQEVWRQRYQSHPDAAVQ
T1 sequence (P31751 whole entry): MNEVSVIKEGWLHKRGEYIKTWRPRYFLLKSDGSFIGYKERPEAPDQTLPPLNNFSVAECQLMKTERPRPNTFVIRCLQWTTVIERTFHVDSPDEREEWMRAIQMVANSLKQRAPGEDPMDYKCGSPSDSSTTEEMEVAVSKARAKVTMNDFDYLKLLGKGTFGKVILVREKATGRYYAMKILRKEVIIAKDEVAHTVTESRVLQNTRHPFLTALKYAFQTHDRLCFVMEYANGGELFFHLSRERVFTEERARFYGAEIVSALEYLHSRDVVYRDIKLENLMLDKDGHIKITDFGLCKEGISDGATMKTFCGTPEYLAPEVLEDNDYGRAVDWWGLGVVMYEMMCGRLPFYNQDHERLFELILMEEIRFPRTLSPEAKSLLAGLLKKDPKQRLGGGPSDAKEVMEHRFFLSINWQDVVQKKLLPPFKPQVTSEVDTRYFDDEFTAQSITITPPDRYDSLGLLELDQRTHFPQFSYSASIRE
Chain of CYP 2C19 (P33261 whole entry): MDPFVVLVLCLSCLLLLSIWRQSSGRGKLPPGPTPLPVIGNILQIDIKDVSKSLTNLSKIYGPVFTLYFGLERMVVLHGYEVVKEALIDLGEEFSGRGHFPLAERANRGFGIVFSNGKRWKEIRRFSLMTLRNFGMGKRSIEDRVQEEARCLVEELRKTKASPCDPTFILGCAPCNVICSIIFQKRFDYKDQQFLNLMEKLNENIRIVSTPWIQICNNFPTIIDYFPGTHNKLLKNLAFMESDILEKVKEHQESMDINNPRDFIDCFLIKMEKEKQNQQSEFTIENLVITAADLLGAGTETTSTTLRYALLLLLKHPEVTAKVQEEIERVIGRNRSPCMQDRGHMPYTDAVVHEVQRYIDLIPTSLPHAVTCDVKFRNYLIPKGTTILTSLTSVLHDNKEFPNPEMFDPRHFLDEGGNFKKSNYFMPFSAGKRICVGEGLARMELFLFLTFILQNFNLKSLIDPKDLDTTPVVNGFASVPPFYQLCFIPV

`CCN1C(=O)COc2nc(-c3ccc([C@]4(N)C[C@@H](O)C4)cc3)c(-c3ccccc3)cc21` [ALM301, 6-(4-((1S,3S)-1-amino-3-hydroxycyclobutyl)phenyl)-1-ethyl-7-phenyl-1H-pyrido[2,3-b][1,4]oxazin-2(3H)-one]: the IC50 is over 10000 nM at PDK1 (10-point titration curve); 95 nM at AKT2 (full length AKT2, read-out: IC50 full length AKT2); 90 nM at AKT2 (read-out: AKT IC50, AKT2); over 25000 nM against CYP 2C19; over 25000 nM against CYP 1A2; 2750 nM on AKT3 (read-out: AKT IC50, AKT3). Besides, the half-inhibitory concentration (IC50) was over 500 nM at AKT3 (read-out: IC50 AKT3); over 20000 nM in the experiment with normal cell lines; 43000 nM with A549 cells; over 25000 nM against CYP 2C9; 100 nM in the experiment on MCF-7 cells [3]. In addition, the inhibition at 10 µM at PDK1 (read-out: % inhibition @ 10 µM, PDK1, 10 µM fixed concentration) worked out at 77%; on AKT1 it was 95%. Also, in the experiment on MCF-7 cells [1] (MCF-7, 0.1–100 µM, 72 h), the “sub-G0 population (cell-cycle analysis)” value is recorded as “increase of sub-G0 population in a concentration dependent manner”. The “increase in sub-G0 population compared to ALM301 alone” value in the experiment on MCF-7 cells [1] (MCF-7, ALM301 in combination with tamoxifen) is listed as 4.5 ×. Further, the “inhibition of truncated AKT3 lacking PH domain” value in the experiment on ∆AKT3 is “not inhibited”. For the same compound, the EC50 in [2] came out at 470 nM. Also, the “inhibition of truncated AKT2 lacking PH domain” value in the experiment on ∆AKT2 is “not inhibited”. Moreover, the “potency versus AKT3 reduced relative to AKT1 and AKT2” value at AKT3 (in vitro kinase assays) was “over 20 fold”. Further, the “inhibition of AKT phosphorylation (western blot)” value with pAKT in MCF-7 cells is “sustained up to 48 h”.

Values taken from article PMC9489722, “Identification and development of a subtype-selective allosteric AKT inhibitor suitable for clinical development” (Scientific Reports, 2022).
